Test results published in PMC9746817, “Activated cholesterol metabolism is integral for innate macrophage responses by amplifying Myd88 signaling” (JCI Insight, 2022).

Assays:
Myd88 CRAC domain = molecular target: T1, Myd88 CRAC domain (Mus musculus, UniProt P22366); assay: NBD-cholesterol fluorescence binding assay; conditions: labelled compound; paper words the KD as that of cholesterol; NBD position (22- or 25-) not told
T1 construct: CRAC-A Tyr187, CRAC-B Tyr227

3H-cholesterol = 3H-cholesterol binding to recombinant GST-tagged protein; GST-Myd88 recovered and radioactivity measured; conditions: 3H-cholesterol 10 μM; n = 3; mean ± SD; parent: est. 3900; read off a plot

T1 sequence (P22366 whole entry, the tested form may be a part): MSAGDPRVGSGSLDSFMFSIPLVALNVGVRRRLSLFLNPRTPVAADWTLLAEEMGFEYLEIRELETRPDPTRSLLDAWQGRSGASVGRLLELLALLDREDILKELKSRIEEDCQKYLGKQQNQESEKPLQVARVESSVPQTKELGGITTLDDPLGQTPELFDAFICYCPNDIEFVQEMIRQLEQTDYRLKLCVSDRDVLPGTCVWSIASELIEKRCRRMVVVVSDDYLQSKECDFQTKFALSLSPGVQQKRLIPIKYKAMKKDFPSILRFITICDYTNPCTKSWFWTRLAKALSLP

Molecule	Kd (Myd88 CRAC domain) [µM]	response (3H-cholesterol) [CPM]
C[C@H](CNc1ccc([N+](=O)[O-])c2nonc12)[C@H]1CC[C@H]2[C@@H]3CC=C4C[C@@H](O)CC[C@]4(C)[C@H]3CC[C@]12C [NBD-cholesterol]	14.1	
GST-tagged mouse Myd88 (from UniProt P22366) Y227F		1900
